*1 amine or outer side, *2 acyl side, *3 side chain or, on linkers, in order; H or OH if unused. Where a SMILES comes first, the peptide text is derived from it. Side-chain parts run from the residue outwards. [ ]: non-standard residue; d: D form. The star is where a group is joined. NH(1-naphthyl) = c1ccc2c(N*)cccc2c1; NHPh(4-CF3) = FC(F)(F)c1ccc(N*)cc1; hCit = NC(=O)NCCCC[C@H](N)C(=O)O; NH(2-Me-phenyl) = Cc1ccccc1N*; 3Abz = Nc1cccc(C(=O)O)c1; Orn = NCCC[C@H](N)C(=O)O; βNA = c1ccc2cc(N*)ccc2c1; Boc = CC(C)(C)OC(=O)*; X1 = Clc1cccc(Cl)c1N*; X7 = Clc1cccc(N*)c1Cl; CO = O=C([*:1])[*:2]; X2 = CC(C)c1ccccc1N*
Molecular target: Gastrin/cholecystokinin type B receptor (Cavia porcellus)
Assay: Binding affinity for Cholecystokinin type B receptor in guinea pig cortex by using [125I]BH-CCK-8 as radioligand

Structure (SMILES)	IC50
Cc1ccccc1NC(=O)NCCC[C@H](NC(=O)[C@H](Cc1c[nH]c2ccccc12)NC(=O)OC(C)(C)C)C(=O)N[C@@H](CC(=O)O)C(=O)N[C@@H](Cc1ccccc1)C(N)=O [3-[2-[2-tert-Butoxycarbonylamino-3-(1H-indol-3-yl)-propionylamino]-5-(3-o-tolyl-ureido)-pentanoylamino]-N-(1-carbamoyl-2-phenyl-ethyl)-succinamic acid] (Boc-W[Orn]([CO-NH(2-Me-phenyl)])DF-NH2)	15 µM
CC(C)(C)OC(=O)N[C@@H](Cc1c[nH]c2ccccc12)C(=O)N[C@@H](CCCCNC(=O)Nc1cccc2ccccc12)C(=O)N[C@@H](CC(=O)O)C(=O)N[C@@H](Cc1ccccc1)C(N)=O [3-[2-[2-tert-Butoxycarbonylamino-3-(1H-indol-3-yl)-propionylamino]-6-(3-naphthalen-1-yl-ureido)-hexanoylamino]-N-(1-carbamoyl-2-phenyl-ethyl)-succinamic acid] (Boc-WK([CO-NH(1-naphthyl)])DF-NH2)	11 µM
CC(C)(C)OC(=O)N[C@@H](Cc1c[nH]c2ccccc12)C(=O)N[C@@H](CCCCNC(=O)Nc1ccc2ccccc2c1)C(=O)N[C@@H](CC(=O)O)C(=O)N[C@@H](Cc1ccccc1)C(N)=O [3-[2-[2-tert-Butoxycarbonylamino-3-(1H-indol-3-yl)-propionylamino]-6-(3-naphthalen-2-yl-ureido)-hexanoylamino]-N-(1-carbamoyl-2-phenyl-ethyl)-succinamic acid] (Boc-WK([CO-βNA])DF-NH2)	3.2 µM
CC(C)(C)OC(=O)N[C@@H](Cc1c[nH]c2ccccc12)C(=O)N[C@@H](CCCCNC(=O)Nc1c(Cl)cccc1Cl)C(=O)N[C@@H](CC(=O)O)C(=O)N[C@@H](Cc1ccccc1)C(N)=O [3-{2-[2-tert-Butoxycarbonylamino-3-(1H-indol-3-yl)-propionylamino]-6-[3-(2,6-dichloro-phenyl)-ureido]-hexanoylamino}-N-(1-carbamoyl-2-phenyl-ethyl)-succinamic acid] (Boc-WK([CO-X1])DF-NH2)	7 µM
CC(C)c1ccccc1NC(=O)NCCCC[C@H](NC(=O)[C@H](Cc1c[nH]c2ccccc12)NC(=O)OC(C)(C)C)C(=O)N[C@@H](CC(=O)O)C(=O)N[C@@H](Cc1ccccc1)C(N)=O [3-{2-[2-tert-Butoxycarbonylamino-3-(1H-indol-3-yl)-propionylamino]-6-[3-(2-isopropyl-phenyl)-ureido]-hexanoylamino}-N-(1-carbamoyl-2-phenyl-ethyl)-succinamic acid] (Boc-WK([CO-X2])DF-NH2)	5.7 µM
CC(C)(C)OC(=O)N[C@@H](Cc1c[nH]c2ccccc12)C(=O)N[C@@H](CCCCNC(=O)Nc1ccc(C(F)(F)F)cc1)C(=O)N[C@@H](CC(=O)O)C(=O)N[C@@H](Cc1ccccc1)C(N)=O [3-{2-[2-tert-Butoxycarbonylamino-3-(1H-indol-3-yl)-propionylamino]-6-[3-(4-trifluoromethyl-phenyl)-ureido]-hexanoylamino}-N-(1-carbamoyl-2-phenyl-ethyl)-succinamic acid] (Boc-WK([CO-NHPh(4-CF3)])DF-NH2)	0.85 µM
CC(C)(C)OC(=O)N[C@@H](Cc1c[nH]c2ccccc12)C(=O)N[C@@H](CCCCNC(N)=O)C(=O)N[C@@H](CC(=O)O)C(=O)N[C@@H](Cc1ccccc1)C(N)=O [3-{2-[2-tert-Butoxycarbonylamino-3-(1H-indol-3-yl)-propionylamino]-6-ureido-hexanoylamino}-N-(1-carbamoyl-2-phenyl-ethyl)-succinamic acid] (Boc-W[hCit]DF-NH2)	1 µM

Molecular target: Gastrin/cholecystokinin type B receptor (Cavia porcellus)
Assay: as above
Remark: another data set of the same source

IC50	Structure (SMILES)
2.9 µM	CC(C)(C)OC(=O)N[C@@H](Cc1c[nH]c2ccccc12)C(=O)N[C@@H](CCCC/N=C(\S)Nc1ccccc1Cl)C(=O)N[C@@H](CC(=O)O)C(=O)N[C@@H](Cc1ccccc1)C(N)=O

Molecular target: Gastrin/cholecystokinin type B receptor (Cavia porcellus)
Assay: Binding affinity towards cholecystokinin type B receptor in guinea pig cortex by using [125I]BH-CCK-8 as radioligand

Structure (SMILES)	IC50
COC(=O)c1cccc(NC(=O)NCCCC[C@H](NC(=O)[C@H](Cc2c[nH]c3ccccc23)NC(=O)OC(C)(C)C)C(=O)N[C@@H](CC(=O)O)C(=O)N[C@@H](Cc2ccccc2)C(N)=O)c1 (Boc-WK([CO-3Abz-OMe])DF-NH2)	1.4 µM
CC(C)(C)OC(=O)N[C@@H](Cc1c[nH]c2ccccc12)C(=O)N[C@@H](CCCCNC(=O)Nc1cccc(Cl)c1Cl)C(=O)N[C@@H](CC(=O)O)C(=O)N[C@@H](Cc1ccccc1)C(N)=O [3-{2-[2-tert-Butoxycarbonylamino-3-(1H-indol-3-yl)-propionylamino]-6-[3-(2,3-dichloro-phenyl)-ureido]-hexanoylamino}-N-(1-carbamoyl-2-phenyl-ethyl)-succinamic acid] (Boc-WK([CO-X7])DF-NH2)	3 µM

From BindingDB's records for doi:10.1021/jm00113a023 (Abbott Laboratories, 1991)
